Test results reported in patent US12486274B2, “Substituted pyrazolo-pyrimidines and uses thereof” (Verge Analytics, Inc., priority 2020, dated 2025).

target: Full length human recombinant PIKFYVE (Homo sapiens (Human), UniProt Q9Y2I7); experiment: Inhibition of PIKfyve (microfluidic electrophoresis kinase assay); assay type: biochemical; conditions: 2 nM enzyme, PI3P/PS substrate, 3 h at room temperature, 12 concentrations
Description: Full length human recombinant PIKFYVE expressed in baculovirus expression system as N-terminal GST-fusion protein (265 kDa) was obtained from Carna Biosciences (Kobe, Japan). The kinase substrate was prepared by mixing and sonicating fluorescently-labeled phosphatidylinositol 3-phosphate (PI3P) with phospho-L-serine (PS) at a 1:10 ratio in 50 mM HEPES buffer pH7.5.
The kinase reactions were assembled in 384-well plates (Greiner) in a total volume of […] as follows. Kinase protein was pre-diluted in an assay buffer comprising 25 mM HEPES, pH 7.5, 1 mM DTT, 2.5 mM MgCl2, and 2.5 mM MnCl2, and 0.005% Triton X-100, and dispensed into a 384-well plate (10 μL per well). Test compounds were serially pre-diluted in DMSO and added to the protein samples by acoustic dispensing (Labcyte Echo). The concentration of DMSO was equalized to 1% in all samples. All test compounds were tested at 12 concentrations. Apilimod was used as a reference compound and was tested in identical manner in each assay plate. Control samples (0%-inhibition, in the absence of inhibitor, DMSO only) and 100%-inhibition (in the absence of enzyme) were assembled in replicates of four and were used to calculate %-inhibition in the presence of compounds. The reactions were initiated by addition of 10 μL of 2× PI3P/PS substrate supplemented with ATP. The final concentration of enzyme was 2 nM, the final concentration of ATP was 10 mM, and the final concentration of PI3P/PS substrate was 1 μM (PI3P). The kinase reactions were allowed to proceed for 3 h at room temperature. Following incubation, the reactions were quenched by addition of […] of termination buffer (100 mM HEPES, pH 7.5, 0.01% Triton X-100, 20 mM EDTA). Terminated plates were analyzed on a microfluidic electrophoresis instrument (Caliper LabChip® 3000, Caliper Life Sciences/Perkin Elmer). The change in the relative fluorescence intensity of the PI (3) P substrate and PI (3,5) P product peaks was measured. The activity in each test sample was determined as the product to sum ratio (PSR): P/(S+P), where P is the peak height of the product, and S is the peak height of the substrate. Percent inhibition (Pinh) was determined using the following equation: Pinh=(PSR0% inh−PSRcompound)/(PSR0% inh−PSR100% inh)*100 in which PSRcompound is the product/sum ratio in the presence of compound, PSR0% inh is the product/sum ratio in the absence of compound, and the PSR100% inh is the product/sum ratio in the absence of the enzyme.

Sequence of Full length human recombinant PIKFYVE (Q9Y2I7 whole entry, the tested form may be a part): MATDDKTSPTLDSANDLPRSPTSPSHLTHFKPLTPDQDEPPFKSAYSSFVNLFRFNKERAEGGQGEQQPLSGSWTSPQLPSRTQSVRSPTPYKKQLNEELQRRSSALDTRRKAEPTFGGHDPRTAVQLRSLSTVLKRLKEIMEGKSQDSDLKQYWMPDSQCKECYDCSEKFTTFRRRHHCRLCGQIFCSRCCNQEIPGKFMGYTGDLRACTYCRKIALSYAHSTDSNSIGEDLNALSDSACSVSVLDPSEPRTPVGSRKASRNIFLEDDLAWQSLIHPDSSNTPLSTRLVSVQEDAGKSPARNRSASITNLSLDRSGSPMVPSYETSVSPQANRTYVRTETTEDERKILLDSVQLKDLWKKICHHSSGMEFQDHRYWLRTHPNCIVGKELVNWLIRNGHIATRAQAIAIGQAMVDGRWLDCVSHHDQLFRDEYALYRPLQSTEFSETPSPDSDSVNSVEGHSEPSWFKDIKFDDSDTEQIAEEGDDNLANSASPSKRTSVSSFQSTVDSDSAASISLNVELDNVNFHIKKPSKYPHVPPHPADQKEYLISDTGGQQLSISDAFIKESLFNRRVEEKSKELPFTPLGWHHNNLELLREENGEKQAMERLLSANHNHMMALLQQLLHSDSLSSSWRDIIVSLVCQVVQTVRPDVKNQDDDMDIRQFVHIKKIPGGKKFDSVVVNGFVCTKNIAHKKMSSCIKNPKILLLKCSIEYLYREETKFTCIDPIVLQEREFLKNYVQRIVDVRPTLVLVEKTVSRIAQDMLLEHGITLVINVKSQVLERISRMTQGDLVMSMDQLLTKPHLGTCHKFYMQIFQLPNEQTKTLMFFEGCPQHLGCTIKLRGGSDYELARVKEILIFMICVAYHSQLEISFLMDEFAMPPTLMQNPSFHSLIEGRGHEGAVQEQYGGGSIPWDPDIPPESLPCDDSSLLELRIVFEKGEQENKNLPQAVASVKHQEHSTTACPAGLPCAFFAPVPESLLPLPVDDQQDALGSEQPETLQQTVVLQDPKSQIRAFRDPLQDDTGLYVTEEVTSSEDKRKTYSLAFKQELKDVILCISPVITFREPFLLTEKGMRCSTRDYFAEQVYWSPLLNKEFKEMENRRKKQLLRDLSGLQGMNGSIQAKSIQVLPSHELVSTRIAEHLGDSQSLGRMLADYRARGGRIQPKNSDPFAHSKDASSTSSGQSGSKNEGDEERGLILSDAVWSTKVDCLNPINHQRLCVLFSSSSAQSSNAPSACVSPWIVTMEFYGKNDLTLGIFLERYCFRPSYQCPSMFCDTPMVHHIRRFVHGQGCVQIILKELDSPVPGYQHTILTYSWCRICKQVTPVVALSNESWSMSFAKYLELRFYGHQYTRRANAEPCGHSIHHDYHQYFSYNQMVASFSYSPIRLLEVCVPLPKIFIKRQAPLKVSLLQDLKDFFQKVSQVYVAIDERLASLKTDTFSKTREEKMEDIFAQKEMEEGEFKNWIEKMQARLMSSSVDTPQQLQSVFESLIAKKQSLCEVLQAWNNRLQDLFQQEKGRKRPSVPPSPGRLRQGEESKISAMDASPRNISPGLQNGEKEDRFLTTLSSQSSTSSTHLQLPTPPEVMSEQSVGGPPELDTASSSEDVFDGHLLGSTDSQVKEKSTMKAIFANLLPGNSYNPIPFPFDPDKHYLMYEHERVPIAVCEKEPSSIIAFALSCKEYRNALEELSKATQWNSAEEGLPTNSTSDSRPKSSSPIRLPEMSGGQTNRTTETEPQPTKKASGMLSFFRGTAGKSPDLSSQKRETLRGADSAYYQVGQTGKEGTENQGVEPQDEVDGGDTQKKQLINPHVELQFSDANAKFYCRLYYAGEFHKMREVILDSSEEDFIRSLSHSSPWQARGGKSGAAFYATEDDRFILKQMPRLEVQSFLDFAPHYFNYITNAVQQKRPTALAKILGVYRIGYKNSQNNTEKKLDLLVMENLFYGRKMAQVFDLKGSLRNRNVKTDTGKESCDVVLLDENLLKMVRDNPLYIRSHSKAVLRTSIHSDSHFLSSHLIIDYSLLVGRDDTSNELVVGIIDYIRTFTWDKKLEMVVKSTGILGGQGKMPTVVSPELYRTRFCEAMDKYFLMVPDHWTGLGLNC

Compound | IC50 [nM]
Cc1ccnc(-c2ccn(-c3cc(N4CCOCC4)n4nc(-c5cc(C)n(CCN(C)C)n5)cc4n3)n2)c1 [Compound 95, N,N-dimethyl-2-[5-methyl-3-[5-[3-(4-methyl-2-pyridyl)pyrazol-1-yl]-7-morpholino-pyrazolo[1,5-a]pyrimidin-2-yl]pyrazol-1-yl]ethanamine] | 350
Cc1cc(-c2ccn(-c3cc(N4CCOCC4)n4nc(-c5cc(C)n(CCN(C)C)n5)cc4n3)n2)ccn1 [Compound 96, N,N-dimethyl-2-[5-methyl-3-[5-[3-(2-methyl-4-pyridyl)pyrazol-1-yl]-7-morpholino-pyrazolo[1,5-a]pyrimidin-2-yl]pyrazol-1-yl]ethanamine] | > 10000
Cc1cc(-c2cc3nc(-n4ccc(-c5cccc(Cl)c5)n4)cc(N4CCOCC4)n3n2)nn1CCN(C)C [Compound 97, 2-[3-[5-[3-(3-chlorophenyl)pyrazol-1-yl]-7-morpholino-pyrazolo[1,5-a]pyrimidin-2-yl]-5-methyl-pyrazol-1-yl]-N,N-dimethyl-ethanamine] | 126
Cc1cc(-c2cc3nc(-n4ccc(-c5ccccc5)n4)cc(N4CCOCC4)n3n2)nn1CCN(C)C [Compound 99, N,N-dimethyl-2-[5-methyl-3-[7-morpholino-5-(3-phenylpyrazol-1-yl)pyrazolo[1,5-a]pyrimidin-2-yl]pyrazol-1-yl]ethanamine] | 127
COc1cccc(-c2ccn(-c3cc(N4CCOCC4)n4nc(-c5cc(C)n(CCN(C)C)n5)cc4n3)n2)c1 [Compound 100, 2-[3-[5-[3-(3-methoxyphenyl)pyrazol-1-yl]-7-morpholino-pyrazolo[1,5-a]pyrimidin-2-yl]-5-methyl-pyrazol-1-yl]-N,N-dimethyl-ethanamine] | 8.4
Cc1cncc(-c2ccn(-c3cc(N4CCOCC4)n4nc(-c5cccnc5)cc4n3)n2)c1 [Compound 102, 4-[5-[3-(5-methyl-3-pyridyl)pyrazol-1-yl]-2-(3-pyridyl)pyrazolo[1,5-a]pyrimidin-7-yl]morpholine] | > 10000
Nc1nccc(-c2cc3nc(-n4ccc(-c5ccccc5)n4)cc(N4CCOCC4)n3n2)n1 [Compound 104, 4-[7-morpholino-5-(3-phenylpyrazol-1-yl)pyrazolo[1,5-a]pyrimidin-2-yl]pyrimidin-2-amine] | 106
Brc1cccc(-c2ccn(-c3cc(N4CCOCC4)n4nc(-c5cccnc5)cc4n3)n2)c1 [Compound 106, 4-[5-[3-(3-bromophenyl)pyrazol-1-yl]-2-(3-pyridyl)pyrazolo[1,5-a]pyrimidin-7-yl]morpholine] | 19.9

The next lines start with the values.

IC50 [nM] | Compound
4390 | Cc1cccc(-c2ccn(-c3cc(N4CCOCC4)n4nc(-c5cc(C)n(CCN(C)C)n5)cc4n3)n2)n1 [Compound 94, N,N-dimethyl-2-[5-methyl-3-[5-[3-(6-methyl-2-pyridyl)pyrazol-1-yl]-7-morpholino-pyrazolo[1,5-a]pyrimidin-2-yl]pyrazol-1-yl]ethanamine]
41 | Cn1ccc(-c2cc3nc(-n4ccc(-c5cccc(Cl)c5)n4)cc(N4CCOCC4)n3n2)n1 [Compound 101, 4-[5-[3-(3-chlorophenyl)pyrazol-1-yl]-2-(1-methylpyrazol-3-yl)pyrazolo[1,5-a]pyrimidin-7-yl]morpholine]
> 10000 | Cc1cc(-c2ccn(-c3cc(N4CCOCC4)n4nc(-c5cccnc5)cc4n3)n2)ccn1 [Compound 103, 4-[5-[3-(2-methyl-4-pyridyl)pyrazol-1-yl]-2-(3-pyridyl)pyrazolo[1,5-a]pyrimidin-7-yl]morpholine]
> 10000 | Clc1cccc(-c2ccn(-c3cc(N4CCOCC4)n4nc(-c5cccnc5)cc4n3)n2)c1 [Compound 105, 4-[5-[3-(3-chlorophenyl)pyrazol-1-yl]-2-(3-pyridyl)pyrazolo[1,5-a]pyrimidin-7-yl]morpholine]
7.1 | COc1cccc(-c2ccn(-c3cc(N4CCOCC4)n4nc(-c5cccnc5)cc4n3)n2)c1 [Compound 107, 4-[5-[3-(3-methoxyphenyl)pyrazol-1-yl]-2-(3-pyridyl)pyrazolo[1,5-a]pyrimidin-7-yl]morpholine]
